This is an account of results in PMC3394890 (Therapeutic Drug Monitoring, 2012).

Series [1] is classed as in vitro ADME. The settings on record: human EDTA plasma QC samples.
The conditions of series [2]: human, in vivo.
The nature of series [3]: Polymyxin B1 and B2 plasma levels in further patient samples. The settings on record: human, in vivo, iv.

SMILES strings stand for the structures. Where two headings read alike, the source gives them in different places. Bridge positions count the residues as written; N and C are the ends. Square brackets hold non-standard residues; d marks the D form. Peptide text beside a SMILES is read from it. * marks the point of attachment. Heptanoyl(6-Me) = CC(C)CCCCC(=O)*; X1 = CC[C@H](C)CCCCC(=O)*; Dab = NCC[C@H](N)C(=O)O

With `CC[C@H](C)CCCCC(=O)N[C@@H](CCN)C(=O)N[C@H](C(=O)N[C@@H](CCN)C(=O)N[C@H]1CCNC(=O)[C@H]([C@@H](C)O)NC(=O)[C@H](CCN)NC(=O)[C@H](CCN)NC(=O)[C@H](CC(C)C)NC(=O)[C@@H](Cc2ccccc2)NC(=O)[C@H](CCN)NC1=O)[C@@H](C)O` [polymyxin B1] (X1-[Dab]T[Dab][Dab][Dab][dF]L[Dab][Dab]T; lactam 4-C), the “Stability during repetitive freeze-thaw cycles” value in series [1] is “at least three repetitive freeze-thaw cycles”. For the same compound, in series [1] (4°C), the “Time stable at 4°C” value is “at least 72 h”. The “Time stable at room temperature” value in series [1] (22°C) is reported as “at least 24 h”. In addition, the “Time stable at −80°C” value in series [1] (−80°C) was “at least 3 months”. For the same compound, in series [2] (female, iv, 1.5 mg/kg), the Cmax stood at 4830 ng/mL, the half-life is 4.7 h, the level at 0 h is 1400 ng/mL and the level at 12 h was 1080 ng/mL.
For the compound `CC(C)CCCCC(=O)N[C@@H](CCN)C(=O)N[C@H](C(=O)N[C@@H](CCN)C(=O)N[C@H]1CCNC(=O)[C@H]([C@@H](C)O)NC(=O)[C@H](CCN)NC(=O)[C@H](CCN)NC(=O)[C@H](CC(C)C)NC(=O)[C@@H](Cc2ccccc2)NC(=O)[C@H](CCN)NC1=O)[C@@H](C)O` [polymyxin B2] ({Heptanoyl(6-Me)}-[Dab]T[Dab][Dab][Dab][dF]L[Dab][Dab]T; lactam 4-C), the half-life in series [2] (female, iv) is 5.4 h. For the same compound, in series [2] (female, iv, 1.5 mg/kg), the level at 0 h stood at 252 ng/mL and the level at 12 h is 214 ng/mL. In series [2], the “Ratio of polymyxin B2 to polymyxin B1+polymyxin B2 in plasma, mean” value was determined as 0.15 and the “Ratio of polymyxin B2 to polymyxin B1+polymyxin B2 in plasma, range” value is recorded as 0.13-0.16. Also, the “Plasma concentration of the patient sample of Figure 1E/F” value in series [3] amounted to 322 ng/mL.
